Measurements: PubChem BioAssay AID192 (DTP/NCI, 2004)
Values joined by “and” are separate entries in the source; they are usually repeats but may differ in a detail not shown here. Identical values can stand only once. Toxic doses and inconclusive results are not listed.

System: BDF1 mice, B16 melanoma ip, median survival T/C
Experiment: NCI In Vivo Anticancer Drug Screen. Data for tumor model B16 Melanoma (intraperitoneal) in B6D2F1 (BDF1) mice
Details: endpoint: median survival time, higher = longer survival
Method in brief: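 The ratio T/C compares compound-treated mice with vehicle-treated controls, using survival or tumor size as the endpoint in a transplantable tumor model.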

[1] = dose: 100.0 mg/kg/injection, schedule: Q01DX009 (ip), vehicle: Klucel (hydroxypropylcellulose) (HPC)
[2] = dose: 200.0 mg/kg/injection, schedule: Q01DX009 (ip), vehicle: Klucel (hydroxypropylcellulose) (HPC)
[3] = dose: 200.0 mg/kg/injection, schedule: Q01DX009 (ip), vehicle: saline
[4] = dose: 400.0 mg/kg/injection, schedule: Q01DX009 (ip), vehicle: saline
[5] = dose: 50.0 mg/kg/injection, schedule: Q01DX009 (ip), vehicle: Klucel (hydroxypropylcellulose) (HPC)

## O=C1CSC2=NCCN12
dose: 50.0 mg/kg/injection, schedule: Q01DX009 (ip), vehicle: suspension in saline
  T/C: 99 % of control
dose: 100.0 mg/kg/injection, schedule: Q01DX009 (ip), vehicle: suspension in saline
  T/C: 113 % of control
dose: 200.0 mg/kg/injection, schedule: Q01DX009 (ip), vehicle: suspension in saline
  T/C: 111 % of control

## COc1ccc(NC(=S)Nc2ccc(OC)cc2)cc1
[1]
  T/C: 106 % of control
[2]
  T/C: 96 % of control
dose: 400.0 mg/kg/injection, schedule: Q01DX009 (ip), vehicle: Klucel (hydroxypropylcellulose) (HPC)
  T/C: 93 % of control

## O=C1C=C(c2ccccc2)C(O)(c2ccccc2)C1 (stereo unspecified)
dose: 50.0 mg/kg/injection, schedule: Q01DX009 (ip), vehicle: saline with Tween-80
  T/C: 97 % of control
dose: 100.0 mg/kg/injection, schedule: Q01DX009 (ip), vehicle: saline with Tween-80
  T/C: 97 % of control
dose: 200.0 mg/kg/injection, schedule: Q01DX009 (ip), vehicle: saline with Tween-80
  T/C: 88 % of control

## CCN(CC)CCCC(C)NC/C=C/CNC(C)CCCN(CC)CC (stereo unspecified)
dose: 6.25 mg/kg/injection, schedule: Q01DX009 (ip), vehicle: saline
  T/C: 105 % of control
dose: 12.5 mg/kg/injection, schedule: Q01DX009 (ip), vehicle: saline
  T/C: 103 % of control
dose: 25.0 mg/kg/injection, schedule: Q01DX009 (ip), vehicle: saline
  T/C: 102 % of control

## c1ccc2cc3c(cc2c1)Cn1c-3nc2ccccc21
dose: 178.0 mg/kg/injection, schedule: Q01DX009 (ip), vehicle: saline with Tween-80
  T/C: 101 % of control
[3]
  T/C: 124 % of control
dose: 266.0 mg/kg/injection, schedule: Q01DX009 (ip), vehicle: saline with Tween-80
  T/C: 100 % of control
dose: 400.0 mg/kg/injection, schedule: Q01DX009 (ip), vehicle: saline with Tween-80
  T/C: 90 % of control
[4]
  T/C: 110 % of control

## Cn1c2nc3ccccc3c-2nc2ccccc21
dose: 1.56 mg/kg/injection, schedule: Q01DX009 (ip), vehicle: water
  T/C: 95 % of control
dose: 3.13 mg/kg/injection, schedule: Q01DX009 (ip), vehicle: water
  T/C: 96 % of control
dose: 6.25 mg/kg/injection, schedule: Q01DX009 (ip), vehicle: other
  T/C: 105 % of control
dose: 6.25 mg/kg/injection, schedule: Q01DX009 (ip), vehicle: water
  T/C: 90 % of control
dose: 12.5 mg/kg/injection, schedule: Q01DX009 (ip), vehicle: other
  T/C: 104 % of control
dose: 25.0 mg/kg/injection, schedule: Q01DX009 (ip), vehicle: other
  T/C: 97 % of control
[5]
  T/C: 87 % of control
dose: 50.0 mg/kg/injection, schedule: Q01DX009 (ip), vehicle: other
  T/C: 92 % of control

## CC1OC(OC2CC(O)(C(=O)CO)Cc3c(O)c4c(c(O)c32)C(=O)c2ccccc2C4=O)CC(N)C1O (stereo unspecified)
dose: 0.1 mg/kg/injection, schedule: Q01DX001 (ip), vehicle: water
  T/C: 102 % of control
dose: 130.0 micrograms/kg/injection, schedule: Q01DX004 (ip), vehicle: other
  T/C: 121 % of control
dose: 216.0 micrograms/kg/injection, schedule: Q04DX003 (ip), vehicle: water
  T/C: 182 % of control
dose: 600.0 micrograms/kg/injection, schedule: Q01DX004 (ip), vehicle: other
  T/C: 114 % of control
dose: 600.0 micrograms/kg/injection, schedule: Q04DX003 (ip), vehicle: water
  T/C: 150 % of control and 283 % of control
dose: 1000.0 micrograms/kg/injection, schedule: Q04DX003 (ip), vehicle: water
  T/C: 154 % of control and 211 % of control

## CC(C)C1NC(=O)NC1=O (stereo unspecified)
dose: 100.0 mg/kg/injection, schedule: Q01DX009 (ip), vehicle: saline
  T/C: 100 % of control
dose: 100.0 mg/kg/injection, schedule: Q04DX003 (ip), vehicle: saline
  T/C: 100 % of control
[3]
  T/C: 95 % of control
dose: 200.0 mg/kg/injection, schedule: Q04DX003 (ip), vehicle: saline
  T/C: 106 % of control
[4]
  T/C: 100 % of control
dose: 400.0 mg/kg/injection, schedule: Q04DX003 (ip), vehicle: saline
  T/C: 97 % of control

## COc1cc2ccc(Cc3nccc4cc(OC)c(OC)cc34)cc2cc1OC
[1]
  T/C: 93 % of control
[2]
  T/C: 93 % of control

## CC[C@]1(O)C[C@H]2CN(CCc3c([nH]c4ccccc34)[C@@](C(=O)OC)(c3cc4c(cc3OC)N(C)[C@H]3[C@@](O)(C(=O)OC)[C@H](OC(C)=O)[C@]5(CC)C=CCN6CC[C@]43[C@@H]65)C2)C1
dose: 0.03 mg/kg/injection, schedule: Q01DX009 (ip), vehicle: saline
  T/C: 152 % of control
dose: 0.05 mg/kg/injection, schedule: Q01DX009 (ip), vehicle: saline
  T/C: 161 % of control
dose: 0.06 mg/kg/injection, schedule: Q01DX009 (ip), vehicle: water
  T/C: 165 % of control
dose: 0.1 mg/kg/injection, schedule: Q01DX009 (ip), vehicle: saline
  T/C: 152 % of control and 155 % of control
dose: 0.12 mg/kg/injection, schedule: Q01DX009 (ip), vehicle: water
  T/C: 110 % of control
dose: 0.2 mg/kg/injection, schedule: Q01DX009 (ip), vehicle: saline
  T/C: 186 % of control and 189 % of control
dose: 0.22 mg/kg/injection, schedule: Q01DX009 (ip), vehicle: saline
  T/C: 196 % of control
dose: 0.22 mg/kg/injection, schedule: Q01DX009 (ip), vehicle: water
  T/C: 197 % of control
dose: 0.25 mg/kg/injection, schedule: Q01DX009 (ip), vehicle: water
  T/C: 163 % of control and 216 % of control
dose: 0.36 mg/kg/injection, schedule: Q01DX009 (ip), vehicle: saline
  T/C: 240 % of control
dose: 0.36 mg/kg/injection, schedule: Q01DX009 (ip), vehicle: water
  T/C: 181 % of control
dose: 0.39 mg/kg/injection, schedule: Q04DX003 (ip), vehicle: saline
  T/C: 162 % of control
dose: 0.4 mg/kg/injection, schedule: Q01DX009 (ip), vehicle: saline
  T/C: 219 % of control
dose: 0.5 mg/kg/injection, schedule: Q04DX003 (ip), vehicle: saline
  T/C: 154 % of control
dose: 0.6 mg/kg/injection, schedule: Q01DX009 (ip), vehicle: saline
  T/C: 250 % of control
dose: 0.63 mg/kg/injection, schedule: Q04DX003 (ip), vehicle: saline
  T/C: 151 % of control
dose: 0.65 mg/kg/injection, schedule: Q04DX003 (ip), vehicle: saline
  T/C: 164 % of control
dose: 0.8 mg/kg/injection, schedule: Q01DX009 (ip), vehicle: saline
  T/C: 260 % of control and 299 % of control
dose: 0.8 mg/kg/injection, schedule: Q04DX003 (ip), vehicle: water
  T/C: 161 % of control
dose: 1.0 mg/kg/injection, schedule: Q04DX003 (ip), vehicle: saline
  T/C: 170 % of control
dose: 1.08 mg/kg/injection, schedule: Q04DX003 (ip), vehicle: saline
  T/C: 201 % of control
dose: 1.44 mg/kg/injection, schedule: Q04DX003 (ip), vehicle: water
  T/C: 190 % of control
dose: 1.8 mg/kg/injection, schedule: Q04DX003 (ip), vehicle: saline
  T/C: 206 % of control
dose: 2.0 mg/kg/injection, schedule: Q04DX003 (ip), vehicle: saline
  T/C: 212 % of control
dose: 2.4 mg/kg/injection, schedule: Q04DX003 (ip), vehicle: water
  T/C: 221 % of control
dose: 2.5 mg/kg/injection, schedule: Q04DX003 (ip), vehicle: saline
  T/C: 189 % of control
dose: 3.2 mg/kg/injection, schedule: Q04DX003 (ip), vehicle: water
  T/C: 224 % of control
dose: 4.0 mg/kg/injection, schedule: Q04DX003 (ip), vehicle: saline
  T/C: 254 % of control
dose: 4.8 mg/kg/injection, schedule: Q01DX001 (ip), vehicle: water
  T/C: 158 % of control
dose: 216.0 micrograms/kg/injection, schedule: Q01DX009 (ip), vehicle: saline
  T/C: 197 % of control
dose: 360.0 micrograms/kg/injection, schedule: Q01DX009 (ip), vehicle: water
  T/C: 155 % of control
dose: 389.0 micrograms/kg/injection, schedule: Q04DX003 (ip), vehicle: saline
  T/C: 158 % of control and 163 % of control
dose: 600.0 micrograms/kg/injection, schedule: Q01DX009 (ip), vehicle: saline
  T/C: 216 % of control
dose: 648.0 micrograms/kg/injection, schedule: Q04DX003 (ip), vehicle: saline
  T/C: 152 % of control and 171 % of control and 197 % of control
dose: 1080.0 micrograms/kg/injection, schedule: Q04DX003 (ip), vehicle: saline
  T/C: 198 % of control
dose: 1800.0 micrograms/kg/injection, schedule: Q04DX003 (ip), vehicle: saline
  T/C: 203 % of control and 230 % of control
dose: 3000.0 micrograms/kg/injection, schedule: Q04DX003 (ip), vehicle: saline
  T/C: 213 % of control and 267 % of control

## CCCCCCCCCC(=O)CCCC
dose: 100.0 mg/kg/injection, schedule: Q01DX009 (ip), vehicle: other
  T/C: 94 % of control
dose: 200.0 mg/kg/injection, schedule: Q01DX009 (ip), vehicle: other
  T/C: 92 % of control

## Nc1nc2[nH]c(=O)cnc2c(=O)[nH]1
[5]
  T/C: 88 % of control
[1]
  T/C: 86 % of control
[2]
  T/C: 99 % of control
